Series [1] addresses Voltage-gated inwardly rectifying potassium channel KCNH2 (Homo sapiens, UniProt Q12809). The series is described as follows: Inhibition of human ERG expressed in HEK cells by mini-patch clamp assay. A general note: The patch-clamp technique gives a direct electrical read-out from membranes.
Series [2] can be described thus: Half life in human liver microsomes. It is filed as ADME, Microsome.
Series [3] addresses T1, Melanin-concentrating hormone receptor 1 (Homo sapiens, UniProt Q99705). The series is described as follows: Displacement of [3H]4-(benzyloxy)-1-(1-(2-(pyrrolidin-1-yl)ethyl)-1H-indazol-5-yl)pyridin-2(1H)-one from MCH-1 receptor expressed in CHO-K1 cells. It is filed as cell-based. (In general: In a radioligand displacement assay an active substance lowers the binding of a labelled ligand.)

Series [4] can be described thus: Aqueous solubility in PBS at pH 7.4. It is filed as physicochemical.
Series [5] can be described thus: Half life in mouse liver microsomes. It is filed as ADME, Microsome. (Liver microsomes are a subcellular fraction often used to study metabolism.)
Series [6] deals with Mus musculus. The series is described as follows: Antiobesity activity in diet-induced obese C57BL/6J mouse model assessed as reduction of body weight at 30 mg/kg, po bid for 5 days. It is filed as functional. Set-up: scale not given: the % may be the effect or the level left.
The next series concerns the target Cytochrome P450 3A4 (Homo sapiens, UniProt P08684). Kind of series: Inhibition of CYP3A4. It is filed as ADME.
The nature of series [7]: Ratio of drug level in brain to plasma in mouse at 30 mg/kg after 6 hrs. Set-up: dose 30 mg/kg. The settings on record: read-out: BPR. It is filed as ADME, organism-based.
Series [8] addresses T1, Melanin-concentrating hormone receptor 1. Kind of series: Antagonistic activity at MCH-1 receptor expressed in CHO-K1 cell assessed as inhibition of MCH-induced calcium release. It is filed as functional, cell-based.
The nature of series [9]: Plasma concentration in mouse at 30 mg/kg after 6 hrs. It is filed as ADME, organism-based. Set-up: dose 30 mg/kg.
The target in another series is T2, Cytochrome P450 1A2 (Homo sapiens, UniProt P05177).
T2 sequence (P05177 whole entry): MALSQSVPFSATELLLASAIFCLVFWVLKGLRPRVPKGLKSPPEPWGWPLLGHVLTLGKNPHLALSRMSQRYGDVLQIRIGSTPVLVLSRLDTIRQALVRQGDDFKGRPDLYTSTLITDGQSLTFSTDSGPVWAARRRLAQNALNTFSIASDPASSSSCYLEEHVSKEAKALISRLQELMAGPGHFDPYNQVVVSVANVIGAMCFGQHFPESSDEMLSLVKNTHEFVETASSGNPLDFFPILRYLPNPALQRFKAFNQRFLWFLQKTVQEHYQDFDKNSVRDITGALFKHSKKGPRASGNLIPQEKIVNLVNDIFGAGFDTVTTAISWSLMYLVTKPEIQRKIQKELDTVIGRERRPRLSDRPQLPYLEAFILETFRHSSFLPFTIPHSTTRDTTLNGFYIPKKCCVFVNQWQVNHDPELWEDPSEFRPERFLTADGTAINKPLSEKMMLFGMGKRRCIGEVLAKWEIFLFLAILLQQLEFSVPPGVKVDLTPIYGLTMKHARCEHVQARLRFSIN
Kind of series: Inhibition of CYP1A2. It is filed as ADME.

Series [10] can be described thus: Drug level in mouse brain at 30 mg/kg after 6 hrs. The settings on record: read-out: Drug uptake. It is filed as ADME, organism-based. On the set-up: dose 30 mg/kg.
A further series addresses Cytochrome P450 2C19 (Homo sapiens, UniProt P33261). Kind of series: Inhibition of CYP2C19. It is filed as ADME.
The next series addresses T3, Cytochrome P450 2B6 (Homo sapiens, UniProt P20813).
T3 sequence (P20813 whole entry): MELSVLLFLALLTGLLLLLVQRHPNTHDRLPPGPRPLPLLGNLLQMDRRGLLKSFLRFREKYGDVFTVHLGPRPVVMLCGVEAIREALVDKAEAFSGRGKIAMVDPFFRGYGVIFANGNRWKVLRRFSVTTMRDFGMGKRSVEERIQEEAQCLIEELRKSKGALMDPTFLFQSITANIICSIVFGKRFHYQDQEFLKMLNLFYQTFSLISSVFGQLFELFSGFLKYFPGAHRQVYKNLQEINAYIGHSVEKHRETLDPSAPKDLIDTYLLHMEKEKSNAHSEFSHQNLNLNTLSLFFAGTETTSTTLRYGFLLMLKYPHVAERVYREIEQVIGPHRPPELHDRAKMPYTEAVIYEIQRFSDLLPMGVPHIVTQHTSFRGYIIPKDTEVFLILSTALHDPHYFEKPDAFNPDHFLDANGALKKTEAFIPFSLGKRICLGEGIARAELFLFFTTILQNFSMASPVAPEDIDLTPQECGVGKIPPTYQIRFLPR
Kind of series: Inhibition of CYP2B6. It is filed as ADME.

The target in another series is Cytochrome P450 2D6 (Homo sapiens, UniProt P10635). Kind of series: Inhibition of CYP2D6. It is filed as ADME.
Chain of Cytochrome P450 2D6 (P10635 whole entry): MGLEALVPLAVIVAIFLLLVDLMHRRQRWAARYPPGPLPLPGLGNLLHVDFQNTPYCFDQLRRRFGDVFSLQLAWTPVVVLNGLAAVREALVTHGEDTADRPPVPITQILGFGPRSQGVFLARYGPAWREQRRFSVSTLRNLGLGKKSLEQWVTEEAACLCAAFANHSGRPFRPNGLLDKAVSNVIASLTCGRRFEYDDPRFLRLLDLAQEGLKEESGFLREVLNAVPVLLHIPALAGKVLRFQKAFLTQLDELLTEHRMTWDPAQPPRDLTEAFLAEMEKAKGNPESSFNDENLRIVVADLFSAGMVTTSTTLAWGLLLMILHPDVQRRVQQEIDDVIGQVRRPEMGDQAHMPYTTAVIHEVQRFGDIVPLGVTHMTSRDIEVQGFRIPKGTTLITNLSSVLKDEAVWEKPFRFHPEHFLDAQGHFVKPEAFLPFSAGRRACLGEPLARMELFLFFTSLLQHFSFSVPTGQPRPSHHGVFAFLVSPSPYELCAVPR
A further series has as its target Cytochrome P450 2C9 (Homo sapiens, UniProt P11712).
Series [11] in a line: Drug level in mouse brain at 10 mg/kg after 6 hrs. It is filed as ADME, organism-based. Set-up: dose 10 mg/kg. Conditions: read-out: Drug uptake.
The subject of series [12] is Mus musculus. Kind of series: Antiobesity activity in diet-induced obese C57BL/6J mouse model assessed as reduction of body weight at 30 mg/kg, po qd for 5 days. It is filed as functional. On the set-up: scale not given: the % may be the effect or the level left.
Series [13] can be described thus: Ratio of drug level in brain to plasma in mouse at 10 mg/kg after 6 hrs. It is filed as ADME, organism-based. On the set-up: dose 10 mg/kg. Conditions: read-out: BPR.
Series [14] is described as follows: Plasma concentration in mouse at 10 mg/kg after 6 hrs. It is filed as ADME, organism-based. Set-up: dose 10 mg/kg.

Values after ≈ are worked out from the molar mass of the structure shown.

T1 sequence (Q99705 whole entry): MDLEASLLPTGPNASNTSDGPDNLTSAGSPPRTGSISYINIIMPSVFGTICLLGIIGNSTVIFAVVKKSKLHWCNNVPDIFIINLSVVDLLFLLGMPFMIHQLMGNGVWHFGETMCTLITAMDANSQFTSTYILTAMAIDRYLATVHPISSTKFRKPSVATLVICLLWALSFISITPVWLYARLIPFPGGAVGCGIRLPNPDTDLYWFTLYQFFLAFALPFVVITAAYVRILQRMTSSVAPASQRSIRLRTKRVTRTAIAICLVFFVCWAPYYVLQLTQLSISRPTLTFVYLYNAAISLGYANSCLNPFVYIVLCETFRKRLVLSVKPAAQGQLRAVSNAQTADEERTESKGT
Chain of Voltage-gated inwardly rectifying potassium channel KCNH2 (Q12809 whole entry): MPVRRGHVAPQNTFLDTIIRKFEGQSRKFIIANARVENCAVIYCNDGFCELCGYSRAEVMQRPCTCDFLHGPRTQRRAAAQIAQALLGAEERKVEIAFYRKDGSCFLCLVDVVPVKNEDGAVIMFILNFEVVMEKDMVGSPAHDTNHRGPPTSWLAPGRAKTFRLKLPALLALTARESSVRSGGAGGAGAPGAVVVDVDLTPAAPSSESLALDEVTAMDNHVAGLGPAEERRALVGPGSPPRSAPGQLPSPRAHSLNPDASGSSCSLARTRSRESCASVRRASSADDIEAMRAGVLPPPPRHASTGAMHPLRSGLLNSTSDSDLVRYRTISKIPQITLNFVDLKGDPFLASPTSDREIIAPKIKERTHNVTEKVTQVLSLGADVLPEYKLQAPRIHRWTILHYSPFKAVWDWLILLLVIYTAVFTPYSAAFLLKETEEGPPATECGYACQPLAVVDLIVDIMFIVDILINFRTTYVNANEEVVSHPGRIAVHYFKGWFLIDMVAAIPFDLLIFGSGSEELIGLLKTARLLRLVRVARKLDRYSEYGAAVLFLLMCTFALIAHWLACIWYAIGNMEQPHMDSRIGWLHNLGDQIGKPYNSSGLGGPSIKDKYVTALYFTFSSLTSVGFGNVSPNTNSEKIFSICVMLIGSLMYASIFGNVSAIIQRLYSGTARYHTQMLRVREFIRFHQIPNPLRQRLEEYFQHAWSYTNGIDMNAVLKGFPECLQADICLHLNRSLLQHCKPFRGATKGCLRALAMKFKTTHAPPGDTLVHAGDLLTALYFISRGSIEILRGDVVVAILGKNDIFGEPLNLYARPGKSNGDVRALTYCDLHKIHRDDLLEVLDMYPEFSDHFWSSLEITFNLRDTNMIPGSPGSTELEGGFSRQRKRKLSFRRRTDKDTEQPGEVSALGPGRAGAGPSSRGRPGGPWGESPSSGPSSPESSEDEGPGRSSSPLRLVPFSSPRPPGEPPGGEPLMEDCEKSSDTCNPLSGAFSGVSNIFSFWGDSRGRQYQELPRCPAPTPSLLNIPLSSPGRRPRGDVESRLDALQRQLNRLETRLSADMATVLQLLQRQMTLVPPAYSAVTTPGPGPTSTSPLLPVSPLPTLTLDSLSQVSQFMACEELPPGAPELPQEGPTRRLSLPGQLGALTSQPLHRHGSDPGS
Chain of Cytochrome P450 3A4 (P08684 whole entry): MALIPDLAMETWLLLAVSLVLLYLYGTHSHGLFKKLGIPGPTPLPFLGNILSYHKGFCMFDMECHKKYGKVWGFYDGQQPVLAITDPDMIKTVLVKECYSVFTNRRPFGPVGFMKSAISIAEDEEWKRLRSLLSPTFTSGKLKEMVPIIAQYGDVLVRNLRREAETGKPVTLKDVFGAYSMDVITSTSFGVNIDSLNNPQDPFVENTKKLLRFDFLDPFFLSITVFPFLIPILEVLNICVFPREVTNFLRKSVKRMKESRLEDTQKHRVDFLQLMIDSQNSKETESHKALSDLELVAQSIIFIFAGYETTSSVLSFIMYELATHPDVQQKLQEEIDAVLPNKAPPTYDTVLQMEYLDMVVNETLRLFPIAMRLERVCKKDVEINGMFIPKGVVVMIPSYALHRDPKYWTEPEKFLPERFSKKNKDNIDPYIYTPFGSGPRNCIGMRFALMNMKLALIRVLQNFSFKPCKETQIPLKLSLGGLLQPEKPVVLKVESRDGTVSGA
Chain of Cytochrome P450 2C19 (P33261 whole entry): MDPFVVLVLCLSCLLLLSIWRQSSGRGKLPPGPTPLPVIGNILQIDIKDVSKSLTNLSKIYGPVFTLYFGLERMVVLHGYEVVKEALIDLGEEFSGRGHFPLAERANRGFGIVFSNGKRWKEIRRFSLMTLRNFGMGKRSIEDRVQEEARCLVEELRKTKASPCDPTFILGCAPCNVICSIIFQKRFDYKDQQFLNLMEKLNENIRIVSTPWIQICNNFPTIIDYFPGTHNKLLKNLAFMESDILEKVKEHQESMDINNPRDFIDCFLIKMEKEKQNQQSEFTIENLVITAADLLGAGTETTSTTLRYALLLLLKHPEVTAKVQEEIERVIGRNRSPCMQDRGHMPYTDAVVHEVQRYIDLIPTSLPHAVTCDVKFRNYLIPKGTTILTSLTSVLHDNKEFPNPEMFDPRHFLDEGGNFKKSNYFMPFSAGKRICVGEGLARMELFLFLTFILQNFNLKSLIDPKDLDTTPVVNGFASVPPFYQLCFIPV
Chain of Cytochrome P450 2C9 (P11712 whole entry): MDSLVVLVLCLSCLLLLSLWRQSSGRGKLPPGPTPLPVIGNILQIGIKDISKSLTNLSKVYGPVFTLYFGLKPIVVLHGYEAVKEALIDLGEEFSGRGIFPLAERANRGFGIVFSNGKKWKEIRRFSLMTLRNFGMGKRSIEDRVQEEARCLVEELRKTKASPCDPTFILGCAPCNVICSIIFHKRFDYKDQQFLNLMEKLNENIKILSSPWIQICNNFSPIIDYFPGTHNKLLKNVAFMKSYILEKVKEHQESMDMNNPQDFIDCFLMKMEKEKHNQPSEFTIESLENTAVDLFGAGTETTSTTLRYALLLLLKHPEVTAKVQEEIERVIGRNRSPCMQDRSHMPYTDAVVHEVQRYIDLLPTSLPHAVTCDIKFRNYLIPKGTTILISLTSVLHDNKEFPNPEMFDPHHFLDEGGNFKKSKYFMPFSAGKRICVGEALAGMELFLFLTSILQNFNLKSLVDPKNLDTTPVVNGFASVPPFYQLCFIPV

With `O=c1cc(OCc2ccccc2)ccn1-c1ccc2c(cnn2CC2=NCCN2)c1`, the IC50 (in general, the concentration that inhibits the measured activity by half) was found to be 8500 nM in series [1] and 38000 nM against Cytochrome P450 3A4. Besides, the figures for the half-life in series [2] and in series [5] were 4.33 h and 9.67 h, respectively. In series [3], the Ki (commonly a dissociation constant, usually derived from enzyme kinetics or from competition with a known ligand) is 22.6 nM. Further, in series [4], the solubility (as a rule, how much of the substance goes into solution per volume) was found to be 410 µM (≈ 164 µg/mL). Moreover, the Activity in the series with Mus musculus [6] is 3.5%.

In [1], `COC[C@H]1CCCN1CCn1ncc2cc(-n3ccc(OCc4ccccc4)cc3=O)ccc21` showed an IC50 of 800 nM. Moreover, in series [3], the Ki is 11.2 nM.

For `O=c1cc(OCc2ccccc2)ccn1-c1ccc2c(cnn2CCN2CCC[C@@H]2CO)c1`, the half-inhibitory concentration (IC50) in [1] was found to be 2300 nM. Further, in series [3], the Ki was 3.1 nM.

For `CCCCn1ncc2cc(-n3ccc(OCc4ccccc4)cc3=O)ccc21`, in series [3], the inhibition constant (Ki) is greater than 5000 nM.

In turn, `CN(C)CCn1ncc2cc(-n3ccc(OCc4ccccc4)cc3=O)ccc21` had a concentration for half-maximal inhibition (IC50) in [1] of 1800 nM. In [3], this compound returned a Ki of 4.7 nM.

With `O=c1cc(OCc2ccccc2)ccn1-c1ccc2c(cnn2CCN2CCCC2)c1`, the Kp at 6 h in series [7] was 0.7. In addition, the values for the IC50 (in series [8]; against Cytochrome P450 1A2; against Cytochrome P450 3A4) were 14 nM, greater than 10000 nM and 10000 nM, respectively. Moreover, the results for the half-life in series [2] and in series [5] were 5.05 h and 11.6 h, respectively. The compound also displayed a solubility in series [4] of 492 µM (≈ 204 µg/mL). Further, the results for the concentration at 6 h in [9] and in series [10] were 2220 ng/mL and 1480 ng/g, respectively.

As for `CN(C)CCCn1ncc2cc(-n3ccc(OCc4ccccc4)cc3=O)ccc21`, the 50% inhibitory concentration (IC50) in series [1] worked out at 1400 nM. In [3], this compound showed an inhibitory constant (Ki) of 12.6 nM.

As to `CN(C)CC(O)Cn1ncc2cc(-n3ccc(OCc4ccccc4)cc3=O)ccc21` (stereo not given), it took 12100 nM to reach half-maximal inhibition in series [1] (IC50). Besides, the Ki in series [3] is 37.7 nM.

Regarding `O=c1cc(OCc2ccccc2)ccn1-c1ccc2c(cnn2CCN2CC[C@H](O)C2)c1`, the 50% inhibitory concentration (IC50) in [1] is 9000 nM; against Cytochrome P450 2C19, greater than 10000 nM; on Cytochrome P450 2B6, greater than 10000 nM; against Cytochrome P450 2D6, greater than 10000 nM; at Cytochrome P450 2C9, greater than 10000 nM; at Cytochrome P450 1A2, greater than 10000 nM. The compound further came in with a 50% inhibitory concentration (IC50) on Cytochrome P450 3A4 of 7700 nM. Besides, the values for the half-life in series [2] and in [5] were 4.82 h and 7.22 h, respectively. The compound further showed a Ki in [3] of 4.7 nM. For the same compound, the solubility in series [4] was greater than 500 µM. Besides, the Activity in the series with Mus musculus [6] is 3.3%.

`CO[C@H]1CCN(CCn2ncc3cc(-n4ccc(OCc5ccccc5)cc4=O)ccc32)C1`: the affinity in [3], expressed as Ki, was 9.4 nM.

In [1], `O=c1cc(OCc2ccccc2)ccn1-c1ccc2c(cnn2C[C@@H]2CCCN2)c1` gave a 50% inhibitory concentration (IC50) of 2000 nM. In series [3], the affinity corresponds to a Ki of 12 nM.

Compound `O=c1cc(OCc2ccccc2)ccn1-c1ccc2c(cnn2CC2C[C@@H](O)CN2)c1` (stereo not given in full) had an IC50 in [1] greater than 30000 nM. Further, the Ki in series [3] was determined as 33 nM.

For `CN1CCN=C1Cn1ncc2cc(-n3ccc(OCc4ccccc4)cc3=O)ccc21`, the Ki in [3] was 30.4 nM.

`O=c1cc(OCc2ccccc2)ccn1-c1ccc2c(cnn2CCN2CCOCC2)c1` returned an IC50 in series [1] greater than 30000 nM. In [3], this compound showed a Ki of 43.4 nM.

`O=c1cc(OCc2ccccc2)ccn1-c1ccc2c(cnn2CCN2CC3CC2CO3)c1` (stereo not given): the IC50 in [1] was 16000 nM. Also, in [3], the inhibitory constant (Ki) turned out to be 17.3 nM.

With `O=c1cc(OCc2ccccc2)ccn1-c1ccc2c(cnn2CCN2CCNCC2)c1`, the inhibitory constant (Ki) in [3] was 24.3 nM.

`O=c1c2cc(-c3ccccc3)oc2ccn1-c1ccc2c(cnn2CCN2CCCC2)c1` showed an inhibition constant (Ki) in series [3] of 9.7 nM.

The compound `O=c1c2cc(-c3ccc(F)cc3)oc2ccn1-c1ccc2c(cnn2CCN2CCCC2)c1` had a Ki in series [3] of 6.1 nM.

In the case of `O=c1c2cc(-c3ccc(Cl)cc3)oc2ccn1-c1ccc2c(cnn2CCN2CCCC2)c1`, the concentration at 6 h in [11] came to 2250 ng/g; in series [14], 141 ng/mL. In addition, the IC50 in [8] was determined as 23 nM. Further, the inhibition constant Ki in series [3] came out at 5.2 nM. Moreover, the Activity with Mus musculus [12] is recorded as 4.5%. In series [13], the Kp at 6 h was found to be 16.

Compound `O=c1c2cc(-c3ccccc3Cl)oc2ccn1-c1ccc2c(cnn2CCN2CCCC2)c1` yielded a Ki in series [3] of 28 nM.

As for `O=c1c2cc(-c3cccc(Cl)c3)oc2ccn1-c1ccc2c(cnn2CCN2CCCC2)c1`, the Ki in series [3] was 38 nM.

With `O=c1c2cc(-c3ccc(Cl)cc3Cl)oc2ccn1-c1ccc2c(cnn2CCN2CCCC2)c1`, affinity in [3] was put at a Ki of 14 nM.

With `O=c1c2cc(-c3ccc(Cl)cc3F)oc2ccn1-c1ccc2c(cnn2CCN2CCCC2)c1`, the inhibition constant (Ki) in [3] is 4.2 nM.

For the compound `COc1cc(Cl)ccc1-c1cc2c(=O)n(-c3ccc4c(cnn4CCN4CCCC4)c3)ccc2o1`, the affinity in series [3], expressed as Ki, was 48 nM.

Turning to `O=c1c2cc(-c3ccccn3)oc2ccn1-c1ccc2c(cnn2CCN2CCCC2)c1`, the Ki in series [3] came out at 59 nM.

The compound `O=c1c2cc(-c3ncccn3)oc2ccn1-c1ccc2c(cnn2CCN2CCCC2)c1` displayed an inhibition constant Ki in series [3] of 1680 nM.

The record behind these values is ChEMBL document CHEMBL1287684, “5-(pyridinon-1-yl)indazoles and 5-(furopyridinon-5-yl)indazoles as MCH-1 antagonists” (Bioorg Med Chem Lett, 2010).
